Measured values published in patent publication US5726302A, “Water soluble adenosine kinase inhibitors” (Gensia Inc., priority 1995, dated 1998).
Where two headings read alike, the source gives them in different places.

Tests used:
male SA rats [1] = assay: Analgesic activity, hot plate; type: in vivo; conditions: Rattus norvegicus, ip
male SA rats [2] = assay: Analgesic activity, tail flick; type: in vivo; conditions: Rattus norvegicus, ip
Water solubility = type: physicochemical; conditions: deionized water (DI)
Procedure: The sample was sonicated for a period of up to 20 minutes. If a solution was not obtained, further solvent was added and the process was repeated until a clear solution was obtained, and the results were recorded. Solutions used were 50 mM potassium biphthalate (pH 4); 100 mM glycine (pH 9); 25 mM sodium carbonate and 25 mM sodium bicarbonate (pH 10); or deionized water (DI).

male SA rats [3] = assay: Anticonvulsant activity, maximal electroshock (MES) model; type: in vivo; conditions: Rattus norvegicus, 1 h; po; one hour after dosing, fasted
Procedure: The anticonvulsant activity of the tested compounds was evaluated in male SA rats (100-150 g, Simonsen) using the maximal electroshock (MES) model described in Swinyard et al., Antiepileptic Drugs, 3d Ed. at 85-102 (Levy, et al., eds.), N.Y.: Raven Press (1989). The rats were maintained on a 12/12 light/dark cycle in temperature controlled facilities with free access to food and water. For p.o. administration, the animals are fasted overnight, prior to the experiment. One hour prior to seizure testing, the animals were injected interperitoneally (ip) or orally (per os, […]) with one of various doses of test compound dissolved in DMSO or PEG 400.
This endpoint was expressed as the percentage of animals in which the response was inhibited.

Rats = assay: Anti-inflammatory activity, carrageenan paw; type: in vivo, rat; conditions: 10 mg/kg, swelling after 3 hours
Procedure: Carrageenan (Type λ) was suspended in sterile PBS at 1% (w/v), autoclaved for 30 minutes, and stored at room temperature. Rats were pretreated with vehicle or AK inhibitor (10 mg/kg) by oral gavage or i.p. administration and the volume of the left hind paw was measured using a water displacement plethysmometer (Stoelting Co., Wood Dale, Ill.). One hour after oral treatment or 30 minutes after i.p. treatment, the rats were briefly anesthetized, and 0.1 ml of the carrageenan solution was injected subcutaneously into the planar surface of the left hind paw. The ensuing paw swelling was measured by plethysmometry after 3 hours. The paw volume in millileters was subtracted from the pre-injection paw volume. Data are presented as the percent inhibition of paw swelling in AK inhibitor treated animals, compared to vehicle treated control animals.

mice [4] = assay: HPLC analysis of plasma for metabolism in mice after oral administration; type: in vivo; conditions: 10 mg/kg
[5] = target: partially purified pig heart adenosine kinase (Sus scrofa, UniProt A0A5G2R0F5); assay: biochemical
partially purified pig heart adenosine kinase, sequence (A0A5G2R0F5 1-362): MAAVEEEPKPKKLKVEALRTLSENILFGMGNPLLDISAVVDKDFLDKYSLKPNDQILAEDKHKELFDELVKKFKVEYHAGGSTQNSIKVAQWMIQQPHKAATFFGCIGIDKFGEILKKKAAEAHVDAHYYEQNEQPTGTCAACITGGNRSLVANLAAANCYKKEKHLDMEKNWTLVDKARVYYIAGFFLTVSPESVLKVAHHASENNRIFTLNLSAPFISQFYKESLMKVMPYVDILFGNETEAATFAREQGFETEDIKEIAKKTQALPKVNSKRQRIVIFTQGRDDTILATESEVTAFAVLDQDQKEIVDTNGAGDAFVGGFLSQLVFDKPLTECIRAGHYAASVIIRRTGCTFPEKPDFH
Procedure: Adenosine kinase activity was measured essentially as described by Yamada et al Biochim. Biophys. Acta 660, 36-43 (1988) with a few minor modifications. Assay mixtures contained 50 mM TRIS-maleate buffer, pH 7.0, 0.1% BSA, 1 mM ATP 1 mM MgCl2, 0.5 μM [U-^14 C] adenosine (400-600 mCi/mmol) and varying duplicate concentrations of inhibitor. The reactions were initiated by addition of approximately 0.1 μU partially purified pig heart adenosine kinase, where one unit is defined as that amount of enzyme required to phosphorylate 1 μmol adenosine per minute. The reactions were incubated for 20 minutes at 37° C. The assay was quenched upon spotting 30 μL aliquots onto 2 cm^2 pieces of Whatman DE81 anion exchange paper. The paper squares were washed for 3 minutes in 6 L distilled/deionized water to remove the unreacted adenosine. […] The amount of ^14 C-AMP was quantified by scintillation counting.

rat cardiomyocytes = conditions: inhibition of adenosine deaminase alone; cited from earlier work
adenosine kinase = conditions: read-out: Ki, inhibition of adenosine kinase; cited from earlier work
[6] = system: isolated guinea pig hearts; conditions: in the absence of ADA inhibition; cited from earlier work
mice [7] = conditions: cited from earlier work
anesthetized rats = conditions: cited from earlier work
ischemic cerebral injury = conditions: Phillis et al.; cited from earlier work
dog hearts = conditions: in vivo; cited from earlier work
isolated rat hearts = conditions: alone, cited from earlier work
[8] = ip, 30 minutes before carrageenan
[9] = po, one hour before carrageenan

C[C@H]1O[C@@H](n2cc(-c3ccccc3)c3c(Nc4ccc(CN(C)C)cc4)ncnc32)[C@H](O)[C@@H]1O [Compound 1, 4-N(N,N-Dimethylaminomethylphenyl)amino-5-phenyl-7-(5-deoxy-β-D-ribofuranosyl)pyrrolo[2,,3-d]pyrimidine]
ED50 (male SA rats [1]): 15.2 mg/kg
ED50 (male SA rats [2]): 15 mg/kg
solubility (Water solubility): > 5000 µg/mL
ED50 (male SA rats [3]): > 20 mg/kg
Carrageenan Paw (% inhibition) of paw swelling (Rats; [8]): 26.0%
Carrageenan Paw (% inhibition) of paw swelling (Rats; [9]): 19.2%

C[C@H]1O[C@@H](n2cc(I)c3c(NCCc4ccccn4)ncnc32)[C@H](O)[C@@H]1O [Compound 43, 4-N-(2-(2-pyridylethyl)amino)-5-iodo-7-(5-deoxy-1-β-D-ribofuranosyl)pyrrolo[2,3-d]pyrimidine]
metabolism in mice shown by HPLC analysis of plasma (mice [4]): generate a potent AK inhibitor
AK inhibition in vitro ([5]; in vitro): weak AK inhibitor in vitro
IC50 ([5]; pig heart adenosine kinase, 0.5 μM adenosine, pH 7.0, 20 minutes at 37° C, read-out: AK Inhibition (IC50)): 10 µM
Carrageenan Paw (% inhibition) of paw swelling (Rats; [8]): 58.6%
Carrageenan Paw (% inhibition) of paw swelling (Rats; [9]): 69.7%

OC[C@H]1O[C@@H](n2cnc3c2N=CNC[C@H]3O)C[C@@H]1O [2'-deoxycoformycin]
effect on adenosine release from the cells (rat cardiomyocytes): no effect on adenosine release

OC[C@H]1O[C@@H](n2cnc3c(NCCCCCCCCCCCCNc4ncnc5c4ncn5[C@@H]4O[C@H](CO)[C@@H](O)[C@H]4O)ncnc32)[C@H](O)[C@@H]1O [1,12-bis(adenosin-N^6-yl)dodecane]
Ki (adenosine kinase): < 100 nM

NC[C@H]1O[C@@H](n2cnc3c(N)ncnc32)[C@H](O)[C@@H]1O [5'-amino-5'-deoxyadenosine]
Ki (adenosine kinase): < 100 nM
increase of adenosine release [6]: not apparent in the absence of ADA inhibition

Nc1ncnc2c1c(I)cn2[C@@H]1O[C@H](CO)[C@@H](O)[C@H]1O [5-iodotubercidin]
general flaccidity (skeletal muscle relaxation) (mice [7]): pronounced general flaccidity
hypothermia (mice [7]): hypothermia
spontaneous locomotor activity (mice [7]): much-reduced spontaneous locomotor activity
blood pressure (anesthetized rats): decrease blood pressure
heart rate (anesthetized rats): decrease blood pressure and heart rate
protection against ischemic cerebral injury (ischemic cerebral injury): apparently does not protect against ischemic cerebral injury
effects in dog hearts subjected to ischemia and reperfusion (dog hearts): inconsistent effects
increase in perfusate adenosine concentration (isolated rat hearts; hypoxic, anoxic or ischemic conditions): no increase in perfusate adenosine concentration
increase in perfusate adenosine concentration (isolated rat hearts; normoxic conditions): no increase in perfusate adenosine concentration
